System: 966289-007-R4-J1-PDC complex spheroid viability
Experiment: Anticancer human tumor 966289-007-R4-J1-PDC patient-derived pancreatic adenocarcinoma cell line growth inhibition [RAS]
Conditions: for IC50: curve of first compound; for viability, T/C: stronger effect = lower value
Procedure, shortened: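 Agents were tested in combination matrices in half-log decrements from a top concentration at or near clinical Cmax (10 microM if undetermined). Targets were multi-cell spheroids of tumour lines plus HUVEC and MSC stromal cells.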

[1] = second compound 0.000949 µM, first compound 0.0316 µM
[2] = second compound 0.000949 µM, first compound 0.1 µM
[3] = second compound 0.000949 µM, first compound 0.316 µM
[4] = second compound 0.000949 µM, first compound 1 µM
[5] = second compound 0.003 µM, first compound 0.0316 µM
[6] = second compound 0.003 µM, first compound 0.1 µM
[7] = second compound 0.003 µM, first compound 0.316 µM
[8] = second compound 0.003 µM, first compound 1 µM
[9] = second compound 0.00949 µM, first compound 0.0316 µM
[10] = second compound 0.00949 µM, first compound 0.1 µM
[11] = second compound 0.00949 µM, first compound 0.316 µM
[12] = second compound 0.00949 µM, first compound 1 µM
[13] = second compound 0.03 µM, first compound 0.0316 µM
[14] = second compound 0.03 µM, first compound 0.1 µM
[15] = second compound 0.03 µM, first compound 0.316 µM
[16] = second compound 0.03 µM, first compound 1 µM
[17] = second compound 0.0949 µM, first compound 0.0316 µM
[18] = second compound 0.0949 µM, first compound 0.1 µM
[19] = second compound 0.0949 µM, first compound 0.316 µM
[20] = second compound 0.0949 µM, first compound 1 µM
[21] = second compound 0.3 µM, first compound 0.0316 µM
[22] = second compound 0.3 µM, first compound 0.1 µM
[23] = second compound 0.3 µM, first compound 0.316 µM
[24] = second compound 0.3 µM, first compound 1 µM
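Note: spheroids exposed to agents for one week before readout.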
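Throughout, for viability, T/C: percent viability relative to DMSO vehicle control wells as 100%.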

Structure (SMILES): CC(=O)OC12COC1CC(O)C1(C)C(=O)C(O)C3=C(C)C(OC(=O)C(O)C(NC(=O)OC(C)(C)C)c4ccccc4)CC(O)(C(OC(=O)c4ccccc4)C21)C3(C)C (stereo unspecified) + CCn1c(-c2cc(N3CCN(C)CC3)cnc2C(C)OC)c2c3cc(ccc31)-c1csc(n1)CC(NC(=O)C1CC1C)C(=O)N1CCCC(N1)C(=O)OCC(C)(C)C2
- IC50 (second compound 0.000949 µM): < 31.6 nM
- IC50 (second compound 0.003 µM): < 31.6 nM
- IC50 (second compound 0.00949 µM): < 31.6 nM
- IC50 (second compound 0.03 µM): < 31.6 nM
- IC50 (second compound 0.0949 µM): < 31.6 nM
- IC50 (second compound 0.3 µM): < 31.6 nM
- viability, T/C [1]: 6.12%
- viability, T/C [2]: 13.9%
- viability, T/C [3]: 13.5%
- viability, T/C [4]: 21.5%
- viability, T/C (second compound 0.000949 µM, first compound 3.16 µM): 29.3%
- viability, T/C (second compound 0.000949 µM, first compound 10 µM): 55%
- viability, T/C [5]: 6.11%
- viability, T/C [6]: 12.1%
- viability, T/C [7]: 10.9%
- viability, T/C [8]: 19.1%
- viability, T/C (second compound 0.003 µM, first compound 3.16 µM): 35.8%
- viability, T/C (second compound 0.003 µM, first compound 10 µM): 60.8%
- viability, T/C [9]: 6.07%
- viability, T/C [10]: 11.1%
- viability, T/C [11]: 13.5%
- viability, T/C [12]: 16.5%
- viability, T/C (second compound 0.00949 µM, first compound 3.16 µM): 42.2%
- viability, T/C (second compound 0.00949 µM, first compound 10 µM): 54.5%
- viability, T/C [13]: 7.27%
- viability, T/C [14]: 8.94%
- viability, T/C [15]: 16.7%
- viability, T/C [16]: 20.9%
- viability, T/C (second compound 0.03 µM, first compound 3.16 µM): 40.2%
- viability, T/C (second compound 0.03 µM, first compound 10 µM): 60.1%
- viability, T/C [17]: 5.65%
- viability, T/C [18]: 11.1%
- viability, T/C [19]: 13.4%
- viability, T/C [20]: 19.3%
- viability, T/C (second compound 0.0949 µM, first compound 3.16 µM): 51.7%
- viability, T/C (second compound 0.0949 µM, first compound 10 µM): 59.8%
- viability, T/C [21]: 7.9%
- viability, T/C [22]: 14.3%
- viability, T/C [23]: 18.4%
- viability, T/C [24]: 23.5%
- viability, T/C (second compound 0.3 µM, first compound 3.16 µM): 41.7%
- viability, T/C (second compound 0.3 µM, first compound 10 µM): 56%

Structure (SMILES): CCc1c2c(nc3ccc(O)cc13)-c1cc3c(c(=O)n1C2)COC(=O)[C@]3(O)CC + CCn1c(-c2cc(N3CCN(C)CC3)cnc2C(C)OC)c2c3cc(ccc31)-c1csc(n1)CC(NC(=O)C1CC1C)C(=O)N1CCCC(N1)C(=O)OCC(C)(C)C2
- IC50 (second compound 0.000949 µM): 1.67 nM
- IC50 (second compound 0.003 µM): 1.57 nM
- IC50 (second compound 0.00949 µM): 1.39 nM
- IC50 (second compound 0.03 µM): 1.14 nM
- IC50 (second compound 0.0949 µM): 1.15 nM
- IC50 (second compound 0.3 µM): 1.21 nM
- viability, T/C (second compound 0.000949 µM, first compound 0.000949 µM): 95.5%
- viability, T/C (second compound 0.000949 µM, first compound 0.003 µM): 2.7%
- viability, T/C (second compound 0.000949 µM, first compound 0.00949 µM): 0.64%
- viability, T/C (second compound 0.000949 µM, first compound 0.03 µM): 0.62%
- viability, T/C (second compound 0.000949 µM, first compound 0.0949 µM): 0.49%
- viability, T/C (second compound 0.000949 µM, first compound 0.3 µM): 0.57%
- viability, T/C (second compound 0.003 µM, first compound 0.000949 µM): 86.2%
- viability, T/C (second compound 0.003 µM, first compound 0.003 µM): 3.2%
- viability, T/C (second compound 0.003 µM, first compound 0.00949 µM): 0.55%
- viability, T/C (second compound 0.003 µM, first compound 0.03 µM): 0.6%
- viability, T/C (second compound 0.003 µM, first compound 0.0949 µM): 1.32%
- viability, T/C (second compound 0.003 µM, first compound 0.3 µM): 0.57%
- viability, T/C (second compound 0.00949 µM, first compound 0.000949 µM): 71.3%
- viability, T/C (second compound 0.00949 µM, first compound 0.003 µM): 6.94%
- viability, T/C (second compound 0.00949 µM, first compound 0.00949 µM): 1.03%
- viability, T/C (second compound 0.00949 µM, first compound 0.03 µM): 0.54%
- viability, T/C (second compound 0.00949 µM, first compound 0.0949 µM): 0.73%
- viability, T/C (second compound 0.00949 µM, first compound 0.3 µM): 0.75%
- viability, T/C (second compound 0.03 µM, first compound 0.000949 µM): 58.1%
- viability, T/C (second compound 0.03 µM, first compound 0.003 µM): 7.49%
- viability, T/C (second compound 0.03 µM, first compound 0.00949 µM): 0.82%
- viability, T/C (second compound 0.03 µM, first compound 0.03 µM): 1.66%
- viability, T/C (second compound 0.03 µM, first compound 0.0949 µM): 0.53%
- viability, T/C (second compound 0.03 µM, first compound 0.3 µM): 0.43%
- viability, T/C (second compound 0.0949 µM, first compound 0.000949 µM): 58.9%
- viability, T/C (second compound 0.0949 µM, first compound 0.003 µM): 4.98%
- viability, T/C (second compound 0.0949 µM, first compound 0.00949 µM): 0.8%
- viability, T/C (second compound 0.0949 µM, first compound 0.03 µM): 0.54%
- viability, T/C (second compound 0.0949 µM, first compound 0.0949 µM): 0.7%
- viability, T/C (second compound 0.0949 µM, first compound 0.3 µM): 0.4%
- viability, T/C (second compound 0.3 µM, first compound 0.000949 µM): 62.1%
- viability, T/C (second compound 0.3 µM, first compound 0.003 µM): 4.76%
- viability, T/C (second compound 0.3 µM, first compound 0.00949 µM): 0.65%
- viability, T/C (second compound 0.3 µM, first compound 0.03 µM): 0.58%
- viability, T/C (second compound 0.3 µM, first compound 0.0949 µM): 0.62%
- viability, T/C (second compound 0.3 µM, first compound 0.3 µM): 0.39%

Structure (SMILES): Nc1ccn(C2OC(CO)C(O)C2(F)F)c(=O)n1 (stereo unspecified) + CCn1c(-c2cc(N3CCN(C)CC3)cnc2C(C)OC)c2c3cc(ccc31)-c1csc(n1)CC(NC(=O)C1CC1C)C(=O)N1CCCC(N1)C(=O)OCC(C)(C)C2
- IC50 (second compound 0.000949 µM): 6.04 nM
- IC50 (second compound 0.003 µM): 6.3 nM
- IC50 (second compound 0.00949 µM): 6.2 nM
- IC50 (second compound 0.03 µM): 6.34 nM
- IC50 (second compound 0.0949 µM): 6.96 nM
- IC50 (second compound 0.3 µM): 12.5 nM
- viability, T/C (second compound 0.000949 µM, first compound 0.00316 µM): 97.8%
- viability, T/C (second compound 0.000949 µM, first compound 0.01 µM): 12.9%
- viability, T/C [1]: 1.26%
- viability, T/C [2]: 0.95%
- viability, T/C [3]: 1.14%
- viability, T/C [4]: 1.37%
- viability, T/C (second compound 0.003 µM, first compound 0.00316 µM): 102%
- viability, T/C (second compound 0.003 µM, first compound 0.01 µM): 14.8%
- viability, T/C [5]: 1.26%
- viability, T/C [6]: 1.21%
- viability, T/C [7]: 1.3%
- viability, T/C [8]: 1.36%
- viability, T/C (second compound 0.00949 µM, first compound 0.00316 µM): 101%
- viability, T/C (second compound 0.00949 µM, first compound 0.01 µM): 13.7%
- viability, T/C [9]: 1.25%
- viability, T/C [10]: 1.19%
- viability, T/C [11]: 1.09%
- viability, T/C [12]: 1.04%
- viability, T/C (second compound 0.03 µM, first compound 0.00316 µM): 97%
- viability, T/C (second compound 0.03 µM, first compound 0.01 µM): 19.3%
- viability, T/C [13]: 1.26%
- viability, T/C [14]: 1.2%
- viability, T/C [15]: 1.06%
- viability, T/C [16]: 1.12%
- viability, T/C (second compound 0.0949 µM, first compound 0.00316 µM): 97.2%
- viability, T/C (second compound 0.0949 µM, first compound 0.01 µM): 28.2%
- viability, T/C [17]: 1.31%
- viability, T/C [18]: 1.32%
- viability, T/C [19]: 1.4%
- viability, T/C [20]: 1.29%
- viability, T/C (second compound 0.3 µM, first compound 0.00316 µM): 97.6%
- viability, T/C (second compound 0.3 µM, first compound 0.01 µM): 61.5%
- viability, T/C [21]: 2.02%
- viability, T/C [22]: 1.27%
- viability, T/C [23]: 1.51%
- viability, T/C [24]: 1.21%

From PubChem BioAssay AID2060897 (Molecular Pharmacology Branch, DTP, NCI, 2025)
